According to paper PMC11603219, “Novel Dibenzoazepine-Substituted Triazole Hybrids as Cholinesterase and Carbonic Anhydrase Inhibitors and Anticancer Agents: Synthesis, Characterization, Biological Evaluation, and In Silico Studies” (ACS Omega, 2024):

What was measured:
hCA I = hCA I (Homo sapiens, UniProt P00915); assay: biochemical; type: biochemical
hCA II = hCA II (Homo sapiens, UniProt P00918); assay: biochemical; type: biochemical
MDA-MB-231 cells = assay: MTT cytotoxicity assay, MDA-MB-231; type: cell-based; details: Homo sapiens, 72 h treatment
BT-549 cells [1] = assay: Colony formation inhibition assay; type: cell-based, human; details: for colony formation inhibition: 10 μM, 20 μM, and 30 μM, 7–10 days
BChE from equine serum = target: T1, BChE from equine serum (Equus caballus, UniProt P81908); assay: biochemical; type: biochemical
T1 construct: from tissue; host or cells: equine serum
Protocol: All of the measurements were repeated thrice. AChE and BChE activity were assessed using a modified version of the Ellman method.[48] The measurement of AChE/BChE activity was conducted with acetylthiocholine iodide/butyrylthiocholine iodide as substrates along with 5,5-dithiobis (2-nitrobenzoic) acid.

BT-549 cells [2] = assay: MTT cytotoxicity assay, BT-549; type: cell-based, human; details: 96 h treatment
AChE = AChE (Homo sapiens, UniProt P22303); assay: biochemical; type: biochemical
[3] = ratio of Ki versus tacrine (TAC/THA)

Chain of hCA I (P00915 whole entry): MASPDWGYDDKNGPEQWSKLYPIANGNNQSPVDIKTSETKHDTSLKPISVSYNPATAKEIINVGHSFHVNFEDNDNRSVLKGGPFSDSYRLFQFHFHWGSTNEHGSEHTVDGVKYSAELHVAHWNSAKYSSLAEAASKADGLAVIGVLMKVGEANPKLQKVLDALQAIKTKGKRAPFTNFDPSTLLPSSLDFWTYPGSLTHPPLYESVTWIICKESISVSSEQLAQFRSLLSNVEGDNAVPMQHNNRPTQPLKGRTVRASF
Chain of AChE (P22303 32-614): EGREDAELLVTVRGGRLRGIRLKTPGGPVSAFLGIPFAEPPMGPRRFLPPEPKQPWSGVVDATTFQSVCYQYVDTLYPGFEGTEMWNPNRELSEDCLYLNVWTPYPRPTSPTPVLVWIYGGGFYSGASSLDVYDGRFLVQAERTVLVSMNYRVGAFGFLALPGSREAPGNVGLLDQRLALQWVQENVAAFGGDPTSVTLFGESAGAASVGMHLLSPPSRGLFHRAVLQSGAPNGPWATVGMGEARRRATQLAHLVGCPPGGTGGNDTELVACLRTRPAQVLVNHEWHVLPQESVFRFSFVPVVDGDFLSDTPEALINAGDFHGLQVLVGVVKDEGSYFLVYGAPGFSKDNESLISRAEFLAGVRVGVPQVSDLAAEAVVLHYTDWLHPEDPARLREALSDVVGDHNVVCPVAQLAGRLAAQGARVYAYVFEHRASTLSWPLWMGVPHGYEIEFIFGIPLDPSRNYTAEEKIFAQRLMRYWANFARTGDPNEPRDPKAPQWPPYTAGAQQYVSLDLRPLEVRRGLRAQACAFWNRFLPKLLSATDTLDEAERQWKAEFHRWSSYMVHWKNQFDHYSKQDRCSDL
T1 sequence (P81908 whole entry): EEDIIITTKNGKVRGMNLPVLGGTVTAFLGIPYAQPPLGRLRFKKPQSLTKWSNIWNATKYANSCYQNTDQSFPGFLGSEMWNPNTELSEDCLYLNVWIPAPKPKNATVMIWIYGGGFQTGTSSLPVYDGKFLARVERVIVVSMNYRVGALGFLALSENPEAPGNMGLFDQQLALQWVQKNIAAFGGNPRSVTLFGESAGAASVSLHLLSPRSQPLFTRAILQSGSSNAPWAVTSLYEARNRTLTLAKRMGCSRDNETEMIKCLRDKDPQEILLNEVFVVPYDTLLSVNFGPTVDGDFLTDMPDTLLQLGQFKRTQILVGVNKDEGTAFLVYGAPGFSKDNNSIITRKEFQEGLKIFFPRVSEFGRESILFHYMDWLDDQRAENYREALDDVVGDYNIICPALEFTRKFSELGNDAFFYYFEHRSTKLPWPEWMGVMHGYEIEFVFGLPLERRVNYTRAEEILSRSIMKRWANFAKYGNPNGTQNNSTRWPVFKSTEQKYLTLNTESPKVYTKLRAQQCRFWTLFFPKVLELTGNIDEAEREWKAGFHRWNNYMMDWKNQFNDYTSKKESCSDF

NS(=O)(=O)c1ccc(-n2cc(CN3c4ccccc4C=Cc4ccccc43)nn2)cc1 [Compound 17, 4-(4-((5H-Dibenzo[b,f]azepin-5-yl)methyl)-1H-1,2,3-triazol-1-yl)benzenesulfonamide]
Ki (hCA I): 0.0405 ± 0.0111 µM
Ki (hCA II): 0.0567 ± 0.0115 µM
IC50 (MDA-MB-231 cells): 36.5 ± 1.62 µM
concentration at which BT-549 colonies were inhibited/suppressed (BT-549 cells [1]): 20 µM
colony formation inhibition (BT-549 cells [1]): suppressed the colonies
Ki (BChE from equine serum): 0.0153 ± 0.00112 µM
IC50 (BT-549 cells [2]): 17.4 ± 3.09 µM
IC50 (BT-549 cells [2]; Homo sapiens, BT-549, 96 h): ≤ 20 µM
Ki (AChE): 0.019 ± 0.00544 µM

C1=Cc2ccccc2N(Cc2cn(Cc3ccccc3)nn2)c2ccccc21 [Compound 12, 5-((1-Benzyl-1H-1,2,3-triazol-4-yl)methyl)-5H-dibenzo[b,f]azepine]
Ki (hCA I): 0.0488 ± 0.00468 µM
Ki (hCA II): 0.0405 ± 0.00585 µM
IC50 (MDA-MB-231 cells): 12.5 ± 1.92 µM
Ki (BChE from equine serum): 0.0488 ± 0.00862 µM
IC50 (BT-549 cells [2]; Homo sapiens, BT-549, 96 h): 33.5 ± 3.03 µM
Ki (AChE): 0.0289 ± 0.00352 µM

Oc1ccccc1-n1cc(CN2c3ccccc3C=Cc3ccccc32)nn1 [Compound 20, 2-(4-((5H-Dibenzo[b,f]azepin-5-yl)methyl)-1H-1,2,3-triazol-1-yl)phenol]
Ki (hCA I): 0.0804 ± 0.0156 µM
Ki (hCA II): 0.0894 ± 0.00492 µM
IC50 (MDA-MB-231 cells): > 100 µM
Ki (BChE from equine serum): 0.0162 ± 0.00243 µM
IC50 (BT-549 cells [2]; Homo sapiens, BT-549, 96 h): 36.2 ± 3.77 µM
Ki (AChE): 0.0228 ± 0.00478 µM

COc1cc(-n2cc(CN3c4ccccc4C=Cc4ccccc43)nn2)cc(OC)c1OC [Compound 19, 5-((1-(3,4,5-Trimethoxyphenyl)-1H-1,2,3-triazol-4-yl)methyl)-5H-dibenzo[b,f]azepine]
Ki (hCA I): 0.094 ± 0.0155 µM
Ki (hCA II): 0.0614 ± 0.00911 µM
IC50 (MDA-MB-231 cells): > 150 µM
concentration at which BT-549 colonies were inhibited/suppressed (BT-549 cells [1]): 20 µM
colony formation inhibition (BT-549 cells [1]): suppressed the colonies
Ki (BChE from equine serum): 0.00222 ± 0.00017 µM
IC50 (BT-549 cells [2]): 18.1 ± 2.14 µM
IC50 (BT-549 cells [2]; Homo sapiens, BT-549, 96 h): ≤ 20 µM
Ki (AChE): 0.0345 ± 0.00854 µM

C1=Cc2ccccc2N(Cc2cn(-c3cccnc3)nn2)c2ccccc21 [Compound 14, 5-((1-(Pyridin-3-yl)-1H-1,2,3-triazol-4-yl)methyl)-5H-dibenzo[b,f]azepine]
Ki (hCA I): 0.0299 ± 0.00593 µM
fold more active than acetazolamide for hCA I (hCA I; ratio of Ki versus AZA): 4.16 fold
Ki (hCA II): 0.0177 ± 0.00154 µM
fold more active than acetazolamide for hCA II (hCA II; ratio of Ki versus AZA): 5.79 fold
IC50 (MDA-MB-231 cells): > 75 µM
concentration at which BT-549 colonies were inhibited/suppressed (BT-549 cells [1]): 10 µM
colony formation inhibition (BT-549 cells [1]): suppressed the colonies
Ki (BChE from equine serum): 0.00765 ± 0.00149 µM
IC50 (BT-549 cells [2]): 16.6 ± 0.97 µM
IC50 (BT-549 cells [2]; Homo sapiens, BT-549, 96 h): ≤ 20 µM
Ki (AChE): 0.0212 ± 0.00587 µM

C1=Cc2ccccc2N(Cc2cn(-c3cccc4ccccc34)nn2)c2ccccc21 [Compound 13, 5-((1-(Naphthalen-1-yl)–1H-1,2,3-triazol-4-yl)methyl)-5H-dibenzo[b,f]azepine]
Ki (hCA I): 0.0621 ± 0.00853 µM
Ki (hCA II): 0.0288 ± 0.00464 µM
IC50 (MDA-MB-231 cells): > 125 µM
Ki (BChE from equine serum): 0.00115 ± 0.00015 µM
times more inhibition effect than compound 12, BChE (BChE from equine serum; ratio of Ki versus compound 12): approximately 42.48 times
fold more active than tacrine for BChE (BChE from equine serum; [3]): 49.70 fold
times more inhibition effect, BChE, compound 18 comparison (BChE from equine serum; ratio of Ki, compound 13 and compound 18): 34.04 times
IC50 (BT-549 cells [2]; Homo sapiens, BT-549, 96 h): > 40 µM
Ki (AChE): 0.0141 ± 0.00381 µM
fold more active than tacrine for AChE (AChE; [3]): 5.49 fold

COc1ccc(-n2cc(CN3c4ccccc4C=Cc4ccccc43)nn2)cc1 [Compound 15, 5-((1-(4-Methoxyphenyl)-1H-1,2,3-triazol-4-yl)methyl)-5H-dibenzo[b,f]azepine]
Ki (hCA I): 0.0547 ± 0.00963 µM
Ki (hCA II): 0.0391 ± 0.00217 µM
IC50 (MDA-MB-231 cells): > 150 µM
concentration at which BT-549 colonies were inhibited/suppressed (BT-549 cells [1]): 20 µM
colony formation inhibition (BT-549 cells [1]): suppressed the colonies
Ki (BChE from equine serum): 0.00411 ± 0.00046 µM
IC50 (BT-549 cells [2]; Homo sapiens, BT-549, 96 h): 26.8 ± 4.6 µM
Ki (AChE): 0.0241 ± 0.00045 µM

O=c1ccc2ccc(OCCn3cc(CN4c5ccccc5C=Cc5ccccc54)nn3)cc2o1 [Compound 16, 7-(2-(4-((5H-Dibenzo[b,f]azepin-5-yl)methyl)-1H-1,2,3-triazol-1-yl)ethoxy)-2H-chromen-2-one]
Ki (hCA I): 0.122 ± 0.0202 µM
Ki (hCA II): 0.0546 ± 0.00199 µM
IC50 (MDA-MB-231 cells): > 150 µM
colony formation inhibition (BT-549 cells [1]): suppressed the colonies
Ki (BChE from equine serum): 0.0112 ± 0.00155 µM
IC50 (BT-549 cells [2]): 17.7 ± 2.54 µM
IC50 (BT-549 cells [2]; Homo sapiens, BT-549, 96 h): ≤ 20 µM
Ki (AChE): 0.0175 ± 0.00219 µM

O=[N+]([O-])c1ccc(-n2cc(CN3c4ccccc4C=Cc4ccccc43)nn2)cc1 [Compound 18, 5-((1-(4-Nitrophenyl)-1H-1,2,3-triazol-4-yl)methyl)-5H-dibenzo[b,f]azepine]
Ki (hCA I): 0.118 ± 0.021 µM
Ki (hCA II): 0.0697 ± 0.00593 µM
IC50 (MDA-MB-231 cells): > 150 µM
Ki (BChE from equine serum): 0.0391 ± 0.00882 µM
IC50 (BT-549 cells [2]; Homo sapiens, BT-549, 96 h): > 40 µM
Ki (AChE): 0.0447 ± 0.00961 µM
